Data from patent EP2042491A1, “Pyridazines as fungicides” (Bayer CropScience AG, priority 2007, dated 2009).

chromatographic logP (physchem) | SMILES | further results
4.08 | Cc1nnc(Cl)c(-c2c(F)cccc2Cl)c1Sc1cccc(F)c1 [3-42] | –
4.32 | Cc1nnc(Cl)c(-c2c(F)cccc2Cl)c1Oc1cccc(OC(F)(F)F)c1 [2-79] | –
3.99 | Cc1nnc(Cl)c(-c2c(F)cccc2Cl)c1Sc1ccccc1F [3-40] | –
3.39 | COc1nnc(C)c(N2CCC(C)CC2)c1-c1c(F)cccc1F [6-1, 4-(2,6-Difluorphenyl)-3-methoxy-6-methyl-5-(4-methylpiperidin-1-yl)pyridazin] | –
4.27 | Cc1nnc(Cl)c(-c2c(F)cccc2Cl)c1Oc1cc(Cl)ccc1Cl [2-80] | –
4.03 | Cc1nnc(Cl)c(-c2c(F)cccc2Cl)c1Sc1ccc(F)cc1 [3-44] | –
0.88 | Cc1n[nH]c(=O)c(-c2c(F)cccc2Cl)c1O [VII-1, 4-(2-Chlor-6-fluorphenyl)-5-hydroxy-6-methylpyridazin-3(2H)-on] | –
5.03 | Cc1nnc(Cl)c(-c2c(F)cccc2Cl)c1Oc1ccc(Oc2ccc(Cl)cc2)cc1 [2-82] | –
3.99 | CCC(C)Sc1c(C)nnc(Cl)c1-c1c(F)cccc1F (stereo not shown) [3-23] | –
2.58 | Cc1nn(Cc2ccccc2)c(=O)c(-c2c(F)cccc2Cl)c1O [VI-1, 2-Benzyl-4-(2-chlor-6-fluorphenyl)-5-hydroxy-6-methylpyridazin-3(2H)-on] | –
3.47 | Cc1nnc(Cl)c(-c2c(F)cccc2F)c1[S+]([O-])c1ccc(Cl)cc1 (stereo not shown) [4-1, 3-Chlor-4-(2,6-difluorphenyl)-5-[(4-chlorphenyl)sulfinyl]-6-methylpyridazin] | –
2.68 | Cc1nnc(Cl)c(-c2c(F)cccc2Cl)c1OC1CCOCC1 [2-85] | –
3.57 | Cc1nnc(Cl)c(-c2c(F)cccc2F)c1SC(C)C [3-25] | –
2.93 | Cc1nnc(Cl)c(-c2c(F)cccc2F)c1Cl [VIII-2, 3,5-Dichlor-4-(2,6-difluorphenyl)-6-methylpyridazin] | –
4.35 | Cc1nnc(Cl)c(-c2c(F)cccc2F)c1Sc1ccc(Cl)cc1 [3-20, 3-Chlor-4-(2,6-difluorphenyl)-5-(4-chlorphenylsulfanyl)-6-methylpyridazin] | –
4.41 | Cc1cccc(Sc2c(C)nnc(Cl)c2-c2c(F)cccc2Cl)c1 [3-38] | –
4.65 | Cc1nnc(Cl)c(-c2c(F)cccc2Cl)c1Sc1ccc(Cl)cc1 [3-33, 3-Chlor-4-(2-chlor-6-fluorphenyl)-5-(4-chlorphenylsulfanyl)-6-methylpyridazin] | logP^a) (Table 3, HPLC on reversed-phase C18, 40°C, 0.1% aqueous formic acid / acetonitrile, linear gradient 10-95% acetonitrile): 4,65
2.69 | NN(Cc1ccccc1)C(=O)Cc1c(F)cccc1Cl [III-1, N-Benzyl-2-(2-chlor-6-fluorphenyl)acetohydrazid] | –
3.24 | Cc1nnc(Cl)c(-c2c(F)cccc2Cl)c1Cl [VIII-1, 3,5-Dichlor-4-(2-chlor-6-fluorphenyl)-6-methylpyridazin] | –
4.51 | Cc1nnc(Cl)c(-c2c(F)cccc2Cl)c1Sc1cccc(C(F)(F)F)c1 [3-41] | –
4.87 | Cc1nnc(Cl)c(-c2c(F)cccc2Cl)c1Sc1ccc(Cl)cc1Cl [3-39] | –
2.6 | COCCOc1c(C)nnc(Cl)c1-c1c(F)cccc1Cl [2-84] | –
2.58 | COCCOCCOc1c(C)nnc(Cl)c1-c1c(F)cccc1Cl [2-83] | –
4.03 | COc1cccc(Sc2c(C)nnc(Cl)c2-c2c(F)cccc2Cl)c1 [3-43] | –
1.41 | Cc1nnc(Cl)c(-c2c(F)cccc2F)c1O [5-1, 3-Chlor-4-(2,6-difluorphenyl)-5-hydroxy-6-methylpyridazin] | –
3.85 | Cc1nnc(Cl)c(-c2c(F)cccc2Cl)c1Oc1cccc(N(C)C)c1 [2-78] | –
4.37 | Cc1nnc(Cl)c(-c2c(F)cccc2F)c1SC(C)C(C)C (stereo not shown) [3-21] | –
4.61 | Cc1nnc(Cl)c(-c2c(F)cccc2Cl)c1Oc1cc(Cl)cc(Cl)c1 [2-81] | –
4.72 | Cc1nnc(Cl)c(-c2c(F)cccc2Cl)c1Sc1cccc(OC(F)(F)F)c1 [3-46] | –

The next lines start with the molecule.

SMILES | chromatographic logP (physchem) | further results
Cc1cccc(Oc2c(C)nnc(Cl)c2-c2c(F)cccc2Cl)c1 [2-76] | 3.99 | –
Cc1nnc(Cl)c(-c2c(F)cccc2F)c1N1CCCC1 [1-65] | 2.57 | –
Cc1nnc(Cl)c(-c2c(F)cccc2Cl)c1Oc1ccc(Cl)cc1 [2-60] | 4.13 | –
Cc1nnc(Cl)c(-c2c(F)cccc2Cl)c1N1CCCC1C (stereo not shown) [1-97] | 3.32 | –
CCOC(=O)/C(C)=N\N(Cc1ccccc1)C(=O)Cc1c(F)cccc1Cl [V-1, Ethyl (2Z)-2-{benzyl[(2-chlor-6-fluorphenyl)acetyl] hydrazono}propanoat] | – | logP (given in the running text of the preparation examples; method presumably as footnote a) of the tables): 3.87
COc1ccc(COc2c(C)nnc(Cl)c2-c2c(F)cccc2F)cc1 [2-42, 3-Chlor-4-(2,6-difluorphenyl)-5-(4-Methoxybenzyloxy)-6-methylpyridazin] | 3.35 | –
Cc1nnc(Cl)c(-c2c(F)cccc2Cl)c1N1CCCC1 [1-98] | 2.82 | –
Cc1nnc(Cl)c(-c2c(F)cccc2Cl)c1Nc1ccc(Cl)cc1 [1-99] | 3.18 | –
Cc1nnc(Cl)c(-c2c(F)cccc2Cl)c1Oc1ccc(F)cc1 [2-67] | 3.56 | –
Cc1nnc(Cl)c(-c2c(F)cccc2F)c1Oc1ccc(Cl)cc1 [2-39] | 3.86 | –
Cc1nnc(Br)c(-c2c(F)cccc2Cl)c1Oc1ccc(Cl)cc1 [2-62] | 4.12 | –
Cc1nnc(Cl)c(-c2c(F)cccc2Cl)c1Oc1cccc(C(F)(F)F)c1 [2-68] | 4.13 | –
Cc1nnc(Cl)c(-c2c(F)cccc2Cl)c1N1CCC2(C)CC2C1 (stereo not shown) [1-96] | 4.25 | –
Cc1nnc(Cl)c(-c2c(F)cccc2F)c1N1CCOCC1 [1-59] | 2.19 | –
Cc1nnc(Cl)c(-c2c(F)cccc2Cl)c1NC(C)C(C)C (racemic) [1-82] | 3.21 | –
Cc1nnc(Cl)c(-c2c(F)cccc2Cl)c1N1CCOCC1 [1-94] | 2.39 | –
Cc1nnc(Cl)c(-c2c(F)cccc2F)c1N[C@H](C)C(C)C [1-46] | 3.04 | –
Cc1nnc(Cl)c(-c2c(F)cccc2Cl)c1N1CC[Si](C)(C)CC1 [1-95] | 4.75 | –
Cc1nnc(Cl)c(-c2c(F)cccc2F)c1N1CCCC1C (stereo not shown) [1-64] | 3.08 | –
Cc1nnc(Cl)c(-c2c(F)cccc2Cl)c1Oc1ccc(C#N)cc1 [2-77] | 3.18 | –
Cc1nnc(Cl)c(-c2c(F)cccc2F)c1OCC1(C)CC1 [2-43] | 3.53 | –
Cc1nnc(Cl)c(-c2c(F)cccc2F)c1NCC1CC1 [1-52] | 2.46 | –

SMILES | chromatographic logP (physchem) | further results
Cc1nnc(Cl)c(-c2c(F)cccc2Cl)c1Oc1cccc(F)c1 [2-66] | 3.65 | –
Cc1nnc(Cl)c(-c2c(F)cccc2Cl)c1Oc1ccccc1F [2-65] | 3.51 | –
Cc1nnc(Cl)c(-c2c(F)cccc2Cl)c1Oc1cccc(C#N)c1 [2-69] | 3.14 | –
COc1cc(Cl)cc(Oc2c(C)nnc(Cl)c2-c2c(F)cccc2Cl)c1 [2-72] | 4.13 | –
Cc1nnc(Cl)c(-c2c(F)cccc2F)c1NC(C)C [1-51] | 2.36 | –
Cc1nnc(Cl)c(-c2c(F)cccc2Cl)c1Oc1cccc(Cl)c1 [2-74] | 4.03 | –
Cc1nnc(Cl)c(-c2c(F)cccc2F)c1OCC(C)C [2-32] | 3.57 | –
Cc1nnc(Cl)c(-c2c(F)cccc2F)c1NCC(C)C [1-48] | 2.64 | –
Cc1nnc(Cl)c(-c2c(F)cccc2F)c1OCC1CC1 [2-41] | 3.1 | –
Cc1nnc(Cl)c(-c2c(F)cccc2F)c1N1CCC(C)CC1 [1-58, 3-Chlor-4-(2,6-difluorphenyl)-6-methyl-5-(4-methylpiperidin-1-yl)pyridazin] | 3.87 | –
Cc1nnc(Cl)c(-c2c(F)cccc2F)c1NCC(C)(C)C [1-49] | 3.06 | –
Cc1nnc(Cl)c(-c2c(F)cccc2Cl)c1Oc1ccc(Cl)cc1Cl [2-70] | 4.46 | –
Cc1nnc(Cl)c(-c2c(F)cccc2Cl)c1Oc1ccc(Cl)c(Cl)c1 [2-75] | 4.41 | –
C#CCOc1c(C)nnc(Cl)c1-c1c(F)cccc1F [2-36] | 2.5 | –
Cc1nnc(Cl)c(-c2c(F)cccc2F)c1NCc1ccccc1 [1-63] | 2.67 | –
Cc1nnc(Cl)c(-c2c(F)cccc2F)c1NC(C)C(C)C (racemic) [1-62] | 2.99 | –
Cc1nnc(Cl)c(-c2c(F)cccc2F)c1N(C)CC(C)C [1-66] | 3.65 | –
COc1cccc(Oc2c(C)nnc(Cl)c2-c2c(F)cccc2Cl)c1 [2-73] | 3.56 | –
Cc1nnc(Cl)c(-c2c(F)cccc2Cl)c1Oc1cccc(C(C)(C)C)c1 [2-71] | 4.92 | –
Cc1nnc(Cl)c(-c2c(F)cccc2Cl)c1NC1CC1 [1-86] | 2.35 | –
COCC(C)Nc1c(C)nnc(Cl)c1-c1c(F)cccc1F (stereo not shown) [1-53] | 2.25 | –
